Consider 34 compounds from US6969711B2, “Cyclic diamine compounds and medicine containing the same” (Kowa Company, Ltd., priority 1997, dated 2005).

`CSc1ncccc1NC(=O)CN1CCN(CCSc2nc3ccccc3o2)CC1.Cl.Cl` displayed a melting point of 186 to 189 °C.

Turning to `CC(C)c1cccc(C(C)C)c1NC(=O)CN1CCN(CCSc2nc3cccc(-c4cc[nH]n4)c3o2)CC1` [Example 103, 2-[4-[2-[7-(pyrazol-3-yl)benzoxazol-2-ylthio]ethyl]piperazin-1-yl]-N-(2,6-diisopropylphenyl)acetamide], the melting point lay within 181 to 183 °C. With `CCCCCCCN(CCN1CCN(CCSc2nc3c(C)c(Cl)cc(C(C)C)c3o2)CC1)C(=O)Nc1c(C(C)C)cc(O)cc1C(C)C` [Example 116, N-[2-[4-[2-(5-chloro-7-isopropyl-4-methylbenzoxazol-2-ylthio)ethyl]piperazin-1-yl]ethyl]-N′-(2,6-diisopropyl-4-hydroxyphenyl)-N-heptylurea], the melting point lay within 138 to 140 °C. On to `CC(C)c1cccc(C(C)C)c1NC(=O)CN1CCN(CCOc2nc3ccccc3[nH]2)CC1` [Example 154, 2-[4-[2-(benzimidazol-2-yloxy)ethyl]piperazin-1-yl]-N-(2,6-diisopropylphenyl)acetamide], for which the melting point fell in the range of 205 to 206 °C. In the case of `CC(C)c1cc([N+](=O)[O-])c(O)c(C(C)C)c1NC(=O)CN1CCN(CCSc2nc3ccccc3o2)CC1` [Example 66, 2-[4-[2-(benzoxazol-2-ylthio)ethyl]piperazin-1-yl]-N-(2,6-diisopropyl-3-hydroxy-4-nitrophenyl)acetamide] it was 139 to 141 °C; in that of `COc1cc(C(C)C)c(NC(=O)CN2CCN(CCSc3nc4cccc(C(C)=O)c4o3)CC2)c(C(C)C)c1` [Example 93, 2-[4-[2-(7-acetylbenzoxazol-2-ylthio)ethyl]piperazin-1-yl]-N-(2,6-diisopropyl-4-methoxyphenyl)acetamide], 185 to 186 °C.

Consider `CC(C)c1cc(O)cc(C(C)C)c1NC(=O)CN1CCN(CCCSc2nc3ccccc3o2)CC1` [Example 118, 2-[4-[3-(benzoxazol-2-ylthio)propyl]piperazin-1-yl]-N-(2,6-diisopropyl-4-hydroxyphenyl)acetamide], for which the melting point lay within 201 to 203 °C.

With `CC(=O)c1cccc2nc(SCCCN3CCCN(CC(=O)Nc4c(C(C)C)cccc4C(C)C)CC3)oc12` [Example 94, 2-[4-[3-(7-acetylbenzoxazol-2-ylthio)propyl]homopiperazin-1-yl]-N-(2,6-diisopropylphenyl)acetamide], the melting point is 86 to 88 °C. In turn, `CSc1cc(C)nc(SC)c1NC(=O)CN1CCN(CCSc2nc3ccccc3s2)CC1` [Example 31, 2-[4-[2-(benzothiazol-2-ylthio)ethyl]piperazin-1-yl]-N-(2,4-bis(methylthio)-6-methyl-3-pyridyl)acetamide] displayed a melting point of 136 to 139 °C. In turn, `CC(C)c1cccc(C(C)C)c1NC(=O)CN1CCN(CCCSc2nc3ccccc3s2)CC1` [Example 8, 2-[4-[3-(benzothiazol-2-ylthio)propyl]piperazin-1-yl]-N-(2,6-diisopropylphenyl)acetamide] came in with a melting point of 113 to 115 °C. The compound `CC(C)c1ccc(F)c(C(C)C)c1NC(=O)CN1CCN(CCSc2nc3ccccc3o2)CC1` [Example 155, 2-[4-[2-(benzoxazol-2-ylthio)ethyl]piperazin-1-yl]-N-(2,6-diisopropyl-3-fluorophenyl)acetamide] showed a melting point of 142 to 144 °C.

`CSc1cccc2nc(SCCN3CCN(CC(=O)Nc4c(C(C)C)cccc4C(C)C)CC3)oc12` [Example 112, 2-[4-[2-(7-methylthiobenzoxazol-2-ylthio)ethyl]piperazin-1-yl]-N-(2,6-diisopropylphenyl)acetamide] registered a melting point of 120 to 121 °C.

`CC(C)c1cc(OC(=O)[C@H](C)N)cc(C(C)C)c1NC(=O)CN1CCN(CCSc2nc3cccc(C(F)(F)F)c3o2)CC1.O=C(O)C(F)(F)F.O=C(O)C(F)(F)F.O=C(O)C(F)(F)F` returned a melting point of 124 to 126 °C. For the compound `COc1cc2oc(SCCN3CCN(CC(=O)Nc4c(C(C)C)cccc4C(C)C)CC3)nc2c(OC)c1OC` [Example 98, 2-[4-[2-(4,5,6-trimethoxybenzoxazol-2-ylthio)ethyl]piperazin-1-yl]-N-(2,6-diisopropylphenyl)acetamide], the melting point was 126 to 129 °C (dec.). The compound `CC(C)c1cc(OC(=O)[C@H](C)N)cc(C(C)C)c1NC(=O)CN1CCN(CCSc2nc3ccccc3o2)CC1.O=C(O)C(F)(F)F.O=C(O)C(F)(F)F.O=C(O)C(F)(F)F` yielded a melting point of 183 to 184 °C.

With `CCCCCCCN(CCN1CCN(CCSc2nc3cccc(C(F)(F)F)c3o2)CC1)C(=O)Nc1c(C(C)C)cc(O)cc1C(C)C.Cl`, the melting point lay within 95 to 97 °C. Turning to `CC(C)c1ccc(OS(C)(=O)=O)c(C(C)C)c1NC(=O)CN1CCN(CCSc2nc3ccccc3o2)CC1` [Example 62, 2-[4-[2-(benzoxazol-2-ylthio)ethyl]-piperazin-1-yl]-N-(2,6-diisopropyl-3-mesyloxyphenyl)acetamide], the melting point is 164 to 166 °C (dec.). As for `CC(C)c1cc(O)cc(C(C)C)c1NC(=O)CN1CCN(CCSc2nc3ccccc3[nH]2)CC1` [Example 156, 2-[4-[2-(benzimidazol-2-ylthio)ethyl]piperazin-1-yl]-N-(2,6-diisopropyl-4-hydroxyphenyl)acetamide], the melting point lay within 241 to 242 °C. In the case of `CCSc1cc(C)nc(SCC)c1NC(=O)CN1CCN(CCSc2nc3cccc(C(F)(F)F)c3o2)CC1` [Example 89, 2-[4-[2-(7-trifluoromethylbenzoxazol-2-ylthio)ethyl]piperazin-1-yl]-N-[2,4-bis(ethylthio)-6-methyl-3-pyridyl]acetamide] it was 107 to 108 °C. To `Cc1cc(SC(C)C)c(NC(=O)CN2CCN(CCCSc3nc4ccccc4o3)CC2)c(SC(C)C)n1.Cl.Cl` belongs 178 to 181 °C. To `CC(C)c1cccc(C(C)C)c1NC(=O)CCN1CCN(CCCSc2nc3ccccc3o2)CC1` [Example 23, 3-[4-[3-(benzoxazol-2-ylthio)propyl]piperazin-1-yl]-N-(2,6-diisopropylphenyl)propanamide] belongs 93 to 95 °C; to `Cc1cc(C)c(NC(=O)CN2CCN(CCSc3nc4ccccc4o3)CC2)c(C)n1` [Example 47, 2-[4-[2-(benzoxazol-2-ylthio)ethyl]piperazin-1-yl]-N-(2,4,6-trimethyl-3-pyridyl)acetamide], 159 to 160 °C. In turn, `CSc1cc(C)nc(SC)c1NC(=O)CN1CCN(CCCSc2nc3ccccc3o2)CC1` [Example 28, 2-[4-[3-(benzoxazol-2-ylthio)propyl]piperazin-1-yl]-N-[2,4-bis(methylthio)-6-methyl-3-pyridyl]acetamide] gave a melting point of 160 to 161 °C. For `CCSc1cc(C)nc(SCC)c1NC(=O)CN1CCN(CCSc2nc3ccc(COC)c(COC)c3o2)CC1` [Example 101, 2-[4-[2-(6,7-bis(methoxymethyl)benzoxazol-2-ylthio)ethyl]piperazin-1-yl]-N-(2,4-bis(ethylthio)-6-methyl-3-pyridyl)acetamide], the melting point lay in the range of 118 to 120 °C. In the case of `CC(=O)Oc1cc(C(C)C)c(NC(=O)CN2CCN(CCSc3nc4ccccc4o3)CC2)c(C(C)C)c1` [Example 73, 2-[4-[2-(benzoxazol-2-ylthio)ethyl]piperazin-1-yl]-N-(4-acetoxy-2,6-diisopropylphenyl)acetamide] it was 126 to 129 °C. Regarding `CCCCCCCN(CCN1CCN(CCSc2nc3ncccc3o2)CC1)C(=O)Nc1c(C(C)C)cc(O)cc1C(C)C` [Example 139, N′-(2,6-diisopropyl-4-hydroxyphenyl)-N-heptyl-N-[2-[4-[2-(oxazolo[4,5-b]pyridin-2-ylthio)ethyl]piperazin-1-yl]ethyl]urea], the melting point was in the range of 100 to 102 °C. In turn, `CSc1ccc(C(C)C)c(NC(=O)CN2CCN(CCSc3nc4ccccc4o3)CC2)c1C(C)C` [Example 60, 2-[4-[2-(benzoxazol-2-ylthio)ethyl]piperazin-1-yl]-N-[2,6-diisopropyl-3-(methylthio)phenyl]acetamide] had a melting point of 148 to 150 °C.

Take `CCSc1cc(C)nc(SCC)c1NC(=O)CN1CCN(CCSc2nc3cccc(C(=O)OC)c3o2)CC1` [Example 35, 2-[4-[2-(7-methoxycarbonylbenzoxazol-2-ylthio)ethyl]piperazin-1-yl]-N-[2,4-bis(ethylthio)-6methyl-3-pyridyl)acetamide]: the melting point was in the range of 118 to 119 °C. In the case of `CC(C)c1cccc(C(C)C)c1NC(=O)CN1CCN(CCSc2nc3cccc(C(F)(F)F)c3o2)CC1` [Example 85, 2-[4-[2-(7-trifluoromethylbenzoxazol-2-ylthio)ethyl]piperazin-1-yl]-N-(2,6-diisopropylphenyl)acetamide] it was 135 to 137 °C (dec.); in that of `CC(C)c1cccc(C(C)C)c1NC(=O)CN1CCCN(CCCSc2nc3cccc(C(F)(F)F)c3o2)CC1` [Example 91, 2-[4-[3-(7-trifluoromethylbenzoxazol-2-ylthio)propyl]homopiperazin-1-yl]-N-(2,6-diisopropylphenyl)acetamide], 77 to 79 °C. In turn, `Cc1cc(SC(C)C)c(NC(=O)CN2CCN(CCSc3nc4ccccc4[nH]3)CC2)c(SC(C)C)n1` [Example 37, 2-[4-[2-(benzimidazol-2-ylthio)ethyl]piperazin-1-yl]-N-(2,4-bis(isopropylthio)-6-methyl-3-pyridyl)acetamide] came in with a melting point of 186 to 188 °C. Consider `CCOCCOc1ccc(C(C)C)c(NC(=O)CN2CCN(CCCSc3nc4ccccc4o3)CC2)c1C(C)C` [Example 71, 2-[4-[3-(benzoxazol-2-ylthio)propyl]piperazin-1-yl]-N-[2,6-diisopropyl-3-(2-ethoxyethyloxy)phenyl]acetamide], for which the melting point was 99 to 100 °C. Regarding `CSc1ncnc(SC)c1NC(=O)CN1CCN(CCSc2nc3ccccc3o2)CC1` [Example 46, 2-[4-[2-(benzoxazol-2-ylthio)ethyl]piperazin-1-yl]-N-[4,6-bis(methylthio)-5-pyrimidyl)acetamide], the melting point lay in the range of 171 to 172 °C. In the case of `CCCCCCCN(CCN1CCN(CCSc2nc3ccccc3o2)CC1)C(=O)Nc1c(C(C)C)cccc1C(C)C` [Example 16, N-[2-[4-[2-(benzoxazol-2-ylthio)ethyl]piperazin-1-yl]ethyl]-N′-(2,6-diisopropylphenyl)-N-heptylurea] it was 110 to 111 °C.

The melting point is the temperature of the solid-liquid transition.
